Patent US10105348B2, “Use of 2-(5S-methyl-2-oxo-4R-phenyl-pyrrolidin-1-yl)-acetamide in the treatment of seizures” (Latvian Institute of Organic Synthesis, priority 2015, dated 2018)

Experiments:
[1] = test system: PTZ-induced clonic and tonic seizures; assay: Timed i.v. pentylenetetrazol (PTZ) infusion seizure threshold test; assay type: in vivo; conditions: male ICR mice
Protocol: (§1) Male ICR mice (Harlan Laboratories BV, Netherlands, ICR (CD-1)) weighing 23-25 g were housed under standard conditions (21-23° C., 50%±10% relative humidity, 12 h light-dark cycle) with unlimited access to standard food (R70 diet, Lactamin AB, Sweden) and water. All experimental procedures were carried out in accordance with guidelines of the EU Directive 2010/63/EU and were approved by the Ethics Council of Animal Protection at the Veterinary and Food Service, Riga, Latvia.
(§2) To accurately detect even slight modulatory effects on convulsive tendencies, we employed the more sensitive intravenous (i.v.) administration route of pentylenetetrazol (PTZ) administration (Loscher W, Honack D, Fassbender C P, Nolting B (1991). The role of technical, biological and pharmacological factors in the laboratory evaluation of anticonvulsant drugs. III. Pentylenetetrazole seizure models. Epilepsy Res 8:171-189; Mandhane S N, Aavula K, Rajamannar T (2007). Timed pentylenetetrazol infusion test: a comparative analysis with s.c.PTZ and MES models of anticonvulsant screening in mice. Seizure 16:636-644) and used bicucculine (BIC) to inhibit the GABA pathway and to induce seizures (Meldrum B S (1975). Epilepsy and gamma-aminobutyric acid-mediated inhibition. Int Rev Neurobiol 17:1-36.). Chemoconvulsant-induced clonic and tonic seizures were initiated by inserting a 30-gauge needle into the tail vein of mice and infusing PTZ 1% or BIC 0.01% at a constant rate of 10 μl/1 s to restrained animals. Infusion was halted when forelimb clonus followed by tonic seizures of the full body were observed. Minimal doses of PTZ or BIC (mg/kg of mouse weight) necessary to induce clonic and tonic seizures were considered as an index of seizure threshold.
(§3) 2-(5S-Methyl-2-oxo-4R-phenyl-pyrrolidin-1-yl)-acetamide (E1R) was administered i.p. at doses of 10 and 50 mg/kg. The test session was started 60 min after the administration of E1R or saline.

[2] = test system: BIC-induced clonic and tonic seizures; assay: Timed i.v. bicucculine (BIC) infusion seizure threshold test; assay type: in vivo; conditions: male ICR mice
Protocol: as §1, §2, §3

[3] = E1R 10 mg/kg i.p. 60 min before 1% PTZ i.v. infusion
[4] = E1R 50 mg/kg i.p. 60 min before 1% PTZ i.v. infusion
[5] = E1R 10 mg/kg i.p. 60 min before 0.01% BIC i.v. infusion
[6] = E1R 50 mg/kg i.p. 60 min before 0.01% BIC i.v. infusion

For `C[C@H]1[C@@H](c2ccccc2)CC(=O)N1CC(N)=O` [E1R, 2-(5S-Methyl-2-oxo-4R-phenyl-pyrrolidin-1-yl)-acetamide], the “Dose of PTZ, mg/kg ± SEM, Clonic seizure (threshold)” value [1, 3] was 27 ± 2 mg/kg, the “Dose of PTZ, mg/kg ± SEM, Tonic seizure (threshold)” value [1, 3] was 64 ± 6 mg/kg and the “Induction of tonic seizures by PTZ, effect versus saline (in words)” value ([1]; E1R 10 mg/kg i.p.) was “significantly reduced the induction of tonic seizures”. The “Dose of PTZ, mg/kg ± SEM, Clonic seizure (threshold)” value [1, 4] was 30 ± 1 mg/kg, the “Dose of PTZ, mg/kg ± SEM, Tonic seizure (threshold)” value [1, 4] was 80 ± 8 mg/kg and the “Clonic and tonic seizures-inducing doses of PTZ, change versus saline (in words)” value ([1]; E1R 50 mg/kg i.p.) was “significant increased”. The “Dose of BIC, mg/kg ± SEM, Clonic seizure (threshold)” value [2, 5] was 0.42 ± 0.02 mg/kg, the “Dose of BIC, mg/kg ± SEM, Tonic seizure (threshold)” value [2, 5] was 0.88 ± 0.08 mg/kg and the “Dose of BIC, mg/kg ± SEM, Clonic seizure (threshold)” value [2, 6] was 0.48 ± 0.03 mg/kg. For the same compound, the “Dose of BIC, mg/kg ± SEM, Tonic seizure (threshold)” value [2, 6] was 1.15 ± 0.09 mg/kg and the “Clonic and tonic seizures-inducing doses of BIC, change versus saline (in words)” value ([2]; E1R 50 mg/kg i.p.) was “significant increased”.
